Experimental data: patent US11530229B2, “Cyano cyclobutyl compounds for CBL-B inhibition and uses thereof” (Nurix Therapeutics, Inc., priority 2019, dated 2022)
Where two headings read alike, the source gives them in different places.

Legend:
[1] = test system: primary human total T-cells; assay: T-cell activation, CD25 surface staining, Biological Example 2; assay type: cell-based; conditions: 48 hours, fold change over baseline; for fold induction at 0.3 µM: 0.3 μM inhibitor; for fold induction at 1 µM: 1 μM inhibitor; for fold induction at 3 µM: 3 μM inhibitor
[2] = test system: primary human total T-cells; assay: T-cell activation, IL-2 secretion, Biological Example 2; assay type: cell-based; conditions: 48 hours, fold change over baseline; for fold induction at 0.3 µM: 0.3 μM inhibitor; for fold induction at 1 µM: 1 μM inhibitor; for fold induction at 3 µM: 3 μM inhibitor
Cbl-b = Cbl-b (Homo sapiens (Human), UniProt Q13191); assay: Cbl-b displacement assay (Cbl-b inhibition assay), Biological Example 1; assay type: binding
Description: Candidate compounds were evaluated for their ability to bind and inhibit Cbl-b, an E3 ubiquitin-protein ligase, as evidenced by their ability to displace a fluorophore-labeled probe (Example 59) bound to Cbl-b.
The ability of candidate compounds to displace a known inhibitor and thereby inhibit Cbl-b activity was measured by monitoring the interaction of Cbl-b with a fluorophore-labeled probe in the presence of the candidate compound. A truncated variant of Cbl-b (UniProt number Q13191; SEQ ID NO:1) containing an Avitag at its N-terminus was co-expressed with BirA biotin ligase and purified using a standard protocol (see Dou et al., Nature Structural and Molecular Biology, 8: 982-987, 2013; Avidity LLC).
Cbl-b Amino Acid Residues 36-427:
Fluorescently-labeled inhibitor probe was synthesized and tagged with BODIPY FL (Example 59). Cbl-b displacement assays were performed in a 384-well plate at room temperature in a 10 μL reaction volume by pre-incubating 0.5 nM Cbl-b or 0.125 nM Cbl-b (final concentration, indicated as “High” and “Low”, respectively) in an assay buffer containing 20 mM HEPES pH 7.5, 150 mM NaCl, 0.01% Triton X-100, 0.01% BSA and 0.5 mM TCEP in the presence of a candidate compound in 1% DMSO (final concentration) for 1 hour. After incubation in the presence of the candidate compound, the plate was incubated for an additional 1 hour in the presence of an approximate EC40 binding saturation consisting of 150 nM fluorescently-labeled inhibitor probe and 2 nM Streptavidin-Terbium (Cisbio) (final concentrations). Following the 1 hour incubation, the plates were read for TR-FRET signal at […] using an Envision plate reader (Perkin Elmer).

[3] = anti-CD3 and anti-CD28 co-stimulation
[4] = anti-CD3 and anti-CD28 co-stimulation, read-out: CD25 staining CD3/CD28 1 μM
[5] = anti-CD3 stimulation alone, read-out: CD25 staining CD3 1 μM
[6] = anti-CD3 and anti-CD28 co-stimulation, read-out: IL-2 secretion CD3/CD28 1 μM
[7] = anti-CD3 stimulation alone, read-out: IL-2 secretion CD3 1 μM
[8] = 0.125 nM Cbl-b final concentration (Low), read-out: Cbl-b activity IC50 (Low)
[9] = read-out: IC50 values in the Cbl-b inhibition assay of Biological Example 1

Chain of Cbl-b (Q13191 36-427): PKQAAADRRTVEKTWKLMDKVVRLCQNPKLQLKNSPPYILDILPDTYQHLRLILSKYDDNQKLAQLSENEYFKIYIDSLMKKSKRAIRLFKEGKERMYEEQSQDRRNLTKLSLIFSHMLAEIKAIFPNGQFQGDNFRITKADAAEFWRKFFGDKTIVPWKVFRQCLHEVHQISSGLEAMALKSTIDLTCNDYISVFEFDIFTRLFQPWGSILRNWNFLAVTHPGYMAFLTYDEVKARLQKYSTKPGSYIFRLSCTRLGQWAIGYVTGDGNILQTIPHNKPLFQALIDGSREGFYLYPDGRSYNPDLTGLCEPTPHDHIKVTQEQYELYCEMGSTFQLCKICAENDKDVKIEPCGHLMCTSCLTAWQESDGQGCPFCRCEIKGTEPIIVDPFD

| SMILES | fold induction at 0.3 µM [1, 3] | fold induction at 1 µM [1, 4] | fold induction at 1 µM [1, 5] | fold induction at 3 µM ([1]; anti-CD3 stimulation alone) | fold induction at 0.3 µM [2, 3] | fold induction at 1 µM [2, 6] | fold induction at 1 µM [2, 7] | fold induction at 3 µM ([2]; anti-CD3 stimulation alone) | IC50 (Cbl-b; [8]) | IC50 (Cbl-b; [9]) |
| --- | --- | --- | --- | --- | --- | --- | --- | --- | --- | --- |
| Cn1cnnc1C[C@]1(c2cccc(N3Cc4c(cc(CN5CC6CCC(F)(F)C6C5)cc4C(F)(F)F)C3=O)c2)C[C@H](C#N)C1 (stereo partly drawn) [Compound 47, (1r,3r)-3-(3-(6-((4,4-difluorohexahydrocyclopenta[c]pyrrol-2(1H)-yl)methyl)-1-oxo-4-(trifluoromethyl)isoindolin-2-yl)phenyl)-3-((4-methyl-4H-1,2,4-triazol-3-yl)methyl)cyclobutane-1-carbonitrile] | > 1.39 | > 1.39 | > 1.15 | > 1.15 | > 20 | > 20 | > 0.85 | > 0.85 | 2 to 5 nM | 2 to 5 nM |
| Cn1cnnc1C[C@]1(c2cccc(N3Cc4c(cc(CN5CC6COC(C6)C5)cc4C(F)(F)F)C3=O)c2)C[C@H](C#N)C1 (stereo partly drawn) [Compound 38, (1r,3r)-3-(3-(6-((6-oxa-3-azabicyclo[3.2.1]octan-3-yl)methyl)-1-oxo-4-(trifluoromethyl)isoindolin-2-yl)phenyl)-3-((4-methyl-4H-1,2,4-triazol-3-yl)methyl)cyclobutane-1-carbonitrile] | > 1.39 | > 1.39 | > 1.15 | > 1.15 | ≤ 15 | 15 to 20 | 0.4 to 0.85 | > 0.85 | 5 to 20 nM | 5 to 20 nM |
| CC1CCN(Cc2cc3c(c(C(F)(F)F)c2)CN(c2cccc([C@]4(Cc5nncn5C)C[C@@H](C#N)C4)c2)C3=O)CC(C)O1 (stereo partly drawn) [Compound 34, (1r,3r)-3-(3-(6-((2,7-dimethyl-1,4-oxazepan-4-yl)methyl)-1-oxo-4-(trifluoromethyl)isoindolin-2-yl)phenyl)-3-((4-methyl-4H-1,2,4-triazol-3-yl)methyl)cyclobutane-1-carbonitrile] | ≤ 1.24 | ≤ 1.24 | ≤ 1 | ≤ 1 | ≤ 15 | ≤ 15 | < 0.4 | 0.4 to 0.85 | 2 to 5 nM |  |
| Cn1cnnc1C[C@]1(c2cccc(N3Cc4c(cc(CNC5CC6(C5)CC6(F)F)cc4C(F)(F)F)C3=O)c2)C[C@H](C#N)C1 (stereo partly drawn) [Compound 23, (1r,3r)-3-(3-(6-(((1,1-difluorospiro[2.3]hexan-5-yl)amino)methyl)-1-oxo-4-(trifluoromethyl)isoindolin-2-yl)phenyl)-3-((4-methyl-4H-1,2,4-triazol-3-yl)methyl)cyclobutane-1-carbonitrile] | 1.24 to 1.39 | 1.24 to 1.39 | 1 to 1.15 | 1 to 1.15 | 15 to 20 | 15 to 20 | 0.4 to 0.85 | 0.4 to 0.85 | 1 to 2 nM | 1 to 2 nM |
| Cn1cnnc1C[C@]1(c2cccc(N3Cc4c(cc(CN5CCCCC(F)(F)C5)cc4C(F)(F)F)C3=O)c2)C[C@H](C#N)C1 [Compound 50, (1r,3r)-3-(3-(6-((3,3-difluoroazepan-1-yl)methyl)-1-oxo-4-(trifluoromethyl)isoindolin-2-yl)phenyl)-3-((4-methyl-4H-1,2,4-triazol-3-yl)methyl)cyclobutane-1-carbonitrile] | > 1.39 | > 1.39 | > 1.15 | > 1.15 | > 20 | > 20 | > 0.85 | 0.4 to 0.85 | 2 to 5 nM | 2 to 5 nM |
| C[C@@H]1C[C@H](C)CN(Cc2cc(C(=O)Nc3cccc([C@]4(Cc5nncn5C)C[C@@H](C#N)C4)c3)nc(C3CC3)c2)C1 [Compound 54] | 1.24 to 1.39 | 1.24 to 1.39 | ≤ 1 | ≤ 1 | > 20 | > 20 | > 0.85 | > 0.85 | < 1 nM |  |
| Cn1cnnc1C[C@]1(c2cccc(N3Cc4c(cccc4C(F)(F)F)C3=O)c2)C[C@H](C#N)C1 [Compound 3, (1r,3r)-3-((4-methyl-4H-1,2,4-triazol-3-yl)methyl)-3-(3-(1-oxo-4-(trifluoromethyl)isoindolin-2-yl)phenyl)cyclobutane-1-carbonitrile] | ≤ 1.24 | ≤ 1.24 | ≤ 1 | 1 to 1.15 | ≤ 15 | ≤ 15 | < 0.4 | < 0.4 | ≥ 20 nM | ≥ 20 nM |
| CC1CCN(Cc2cc3c(c(C(F)(F)F)c2)CN(c2cccc([C@]4(Cc5nncn5C)C[C@@H](C#N)C4)c2)C3=O)CCO1 (stereo partly drawn) [Compound 36, (1r,3r)-3-(3-(6-((7-methyl-1,4-oxazepan-4-yl)methyl)-1-oxo-4-(trifluoromethyl)isoindolin-2-yl)phenyl)-3-((4-methyl-4H-1,2,4-triazol-3-yl)methyl)cyclobutane-1-carbonitrile] | 1.24 to 1.39 | > 1.39 | 1 to 1.15 | 1 to 1.15 | ≤ 15 | 15 to 20 | < 0.4 | 0.4 to 0.85 | 2 to 5 nM |  |
| C[C@@H]1CN(Cc2cc3c(c(C(F)(F)F)c2)CN(c2cccc([C@]4(Cc5nncn5C)C[C@@H](C#N)C4)c2)C3=O)CCO1 [Compound 6, (1r,3r)-3-((4-methyl-4H-1,2,4-triazol-3-yl)methyl)-3-(3-(6-(((R)-2-methylmorpholino)methyl)-1-oxo-4-(trifluoromethyl)isoindolin-2-yl)phenyl)cyclobutane-1-carbonitrile] | ≤ 1.24 | ≤ 1.24 | 1 to 1.15 | ≤ 1 | ≤ 15 | ≤ 15 | 0.4 to 0.85 | 0.4 to 0.85 | 2 to 5 nM | 2 to 5 nM |
| Cn1cnnc1C[C@]1(c2cccc(N3Cc4c(cc(CN5CCCCC(C)(F)C5)cc4C(F)(F)F)C3=O)c2)C[C@H](C#N)C1 (stereo partly drawn) [Compound 26, (1r,3r)-3-(3-(6-((3-fluoro-3-methylazepan-1-yl)methyl)-1-oxo-4-(trifluoromethyl)isoindolin-2-yl)phenyl)-3-((4-methyl-4H-1,2,4-triazol-3-yl)methyl)cyclobutane-1-carbonitrile] | ≤ 1.24 | ≤ 1.24 | ≤ 1 | ≤ 1 | ≤ 15 | ≤ 15 | < 0.4 | < 0.4 | 2 to 5 nM |  |
